Legend:
TNFα = test: Effect with respect to blood TNF-α concentration elevation by LPS stimulation; format: in vivo; conditions: oral, female BALB/c mice, LPS 5 mg/kg i.p. one hour after compound, serum sampled one hour later, vs control group
Description: Effect With Respect to Blood TNF-α Concentration Elevation by LPS Stimulation
Various kinds of cytokines are produced in vivo accompanying inflammatory response and abnormal immunity or the like. Therefore, the action of test compound with respect to blood TNFa concentration rise was investigated using laboratory animals.
Female BALB/c mice (6 weeks old) were purchased, and, after preliminary rearing for about 1 week, the mice were divided into groups of four animals. […] Solvent was administered to control group in the same way. LPS (5 mg/kg) was administered intraperitoneally to the test group and the control group one hour after the administration of the test compound or solvent, and blood was sampled one hour later. The serum was separated from the obtained blood, and the TNFα concentration in the serum was measured using an assay kit made by R&D Systems Inc. The inhibition rates of the test group with respect to the control group are shown in Table 3.

TLR4 = molecular target: T1, TLR4 (Mus musculus, UniProt Q9QUK6); test: Inhibitory effect with respect to NO production (LPS/interferon γ stimulated RAW264.7 cells); format: cell-based, murine; conditions: test compound 100 nM, LPS 1.25 ng/mL + mouse interferon γ 0.2 ng/mL, nitrite ion in culture supernatant
T1 construct: endogenous in cells; host or cells: RAW264.7 (murine macrophage cell line)
T1 sequence (Q9QUK6 26-835): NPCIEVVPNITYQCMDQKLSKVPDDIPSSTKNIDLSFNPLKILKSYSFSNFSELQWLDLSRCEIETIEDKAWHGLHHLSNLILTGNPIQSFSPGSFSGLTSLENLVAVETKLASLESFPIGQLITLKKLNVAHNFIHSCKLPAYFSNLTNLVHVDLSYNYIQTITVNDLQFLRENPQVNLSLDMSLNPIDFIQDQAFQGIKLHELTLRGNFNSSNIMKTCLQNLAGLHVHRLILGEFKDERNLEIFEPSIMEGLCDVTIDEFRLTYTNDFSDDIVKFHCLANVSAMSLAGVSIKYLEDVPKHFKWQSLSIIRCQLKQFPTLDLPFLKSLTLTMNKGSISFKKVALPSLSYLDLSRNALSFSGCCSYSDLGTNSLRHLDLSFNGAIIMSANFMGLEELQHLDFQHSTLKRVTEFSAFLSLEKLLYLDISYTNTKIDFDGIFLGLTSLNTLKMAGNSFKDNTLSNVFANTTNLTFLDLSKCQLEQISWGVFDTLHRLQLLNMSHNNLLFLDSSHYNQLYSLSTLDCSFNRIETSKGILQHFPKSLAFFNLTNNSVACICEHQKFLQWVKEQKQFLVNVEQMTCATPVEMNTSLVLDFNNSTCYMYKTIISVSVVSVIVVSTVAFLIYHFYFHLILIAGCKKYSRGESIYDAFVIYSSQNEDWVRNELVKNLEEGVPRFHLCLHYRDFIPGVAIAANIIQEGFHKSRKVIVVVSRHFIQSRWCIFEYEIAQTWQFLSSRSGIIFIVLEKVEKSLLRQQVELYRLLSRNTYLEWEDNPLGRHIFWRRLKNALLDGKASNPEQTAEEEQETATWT
T1 sequence (Q9JHF9 19-160 partner): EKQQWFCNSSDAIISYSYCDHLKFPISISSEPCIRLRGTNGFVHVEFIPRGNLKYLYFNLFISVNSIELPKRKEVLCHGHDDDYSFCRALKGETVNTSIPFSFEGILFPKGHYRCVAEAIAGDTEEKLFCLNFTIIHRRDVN
Description: Inhibitory Effect With Respect to NO Production
The inhibitory effect on TLR4 was determined using the inhibition rate due to the test compound with respect to NO production as a result of addition of lipopolysaccharide (LPS) using murine macrophage cell line RAW264.7. The cells were adjusted to 2×10^6 cells/mL using RPM1-1640 culture medium (phenol red free) supplemented with 10% inactivated bovine fetal serum, and were plated on 384 well plate so as to contain 6×10^4 cells/30 μL per well. Thereafter the cells were cultured at 37° C. overnight under 5% CO2/95% air. The test compound dissolved in DMSO was diluted 200 times using RPM1-1640 culture medium and adjusted so as to form a compound concentration of 500 nM. The prepared test compound 10 μL (final concentration 100 nM) was added to the cells, and LPS (Sigma) and mouse interferon γ (Wako Pure Chemicals) were added in amounts of 10 μL so as to form final concentrations of 1.25 ng/mL and 0.2 ng/mL respectively. The cells were further cultured overnight, and then the nitrite ion (stable NO metabolite) concentration in the culture supernatant was measured as an index of NO production. The nitrite ion concentration was assayed by adding 10 μL of 20 μg/mL 2,3-diamino naphthalene (DAN) dissolved in 0.2N HCl to 20 μL culture supernatant, incubating at room temperature for ten minutes, and then adding 10 μL of 0.5N NaOH, and measuring the fluorescent value at 460 nm (excitation wavelength 355 nm) using an EnVision plate reader (Perkin Elmer). The NO production inhibition rate (%) was calculated using the value without the addition of stimulating agent as control of 100% inhibition, and the value without the addition of the compound as control of 0% inhibition.

Row | SMILES | NO production inhibitory effect at 100 nM (% inhibition) (TLR4) | NO production inhibitory effect at 100 nM (% inhibition) (TLR4; 0.1 µM) | Blood TNFα inhibition rate (% inhibition) (TNFα; Dose 20 mg/kg) | Blood TNFα inhibition rate (% inhibition) (TNFα; Dose 10 mg/kg)
1 | CCOC(=O)C1=CC2(CCC1S(=O)(=O)Cc1ccc(F)cc1Cl)O[C@H](CO)[C@@H](CO)O2 (stereo partly drawn) [Compound 2, ethyl (2R,3R)-8-((2-chloro-4-fluorobenzyl)sulfonyl)-2,3-bis(hydroxymethyl)-1,4-dioxaspiro[4.5]dec-6-ene-7-carboxylate] | 106 | – | 84.5 | –
2 | CCOC(=O)C1=CC2(CCC1S(=O)(=O)Cc1ccc(F)cc1Cl)O[C@@H](CO)[C@H](CO)O2 (stereo partly drawn) [Compound 1, ethyl (2S,3S)-8-((2-chloro-4-fluorobenzyl)sulfonyl)-2,3-bis(hydroxymethyl)-1,4-dioxaspiro[4.5]dec-6-ene-7-carboxylate] | 107 | – | 83.3 | –
3 | CCOC(=O)C1=CC2(CCC1S(=O)(=O)Cc1cccc(Cl)c1)O[C@H](CO)[C@@H](CO)O2 (stereo partly drawn) [Compound 3, ethyl (2R,3R)-8-((3-chlorobenzyl)sulfonyl)-2,3-bis(hydroxymethyl)-1,4-dioxaspiro[4.5]dec-6-ene-7-carboxylate] | 100 | – | 84.9 | –
4 | CCOC(=O)C1=CC2(CCC1S(=O)(=O)Cc1ccc(F)cc1Cl)O[C@H](CO)[C@@H](CO)O2 (single isomer, unassigned) [Compound 14] | – | 100 | – | 82.8
5 | CCOC(=O)C1=CC2(CCC1S(=O)(=O)Cc1ccc(F)cc1Cl)O[C@@H](CO)[C@H](CO)O2 (single isomer, unassigned) [Compound 7] | – | 100 | – | 92.4
6 | CCOC(=O)C1=CC2(CCC1S(=O)(=O)Cc1ccc(F)cc1Cl)OC[C@@H](CO)O2 (stereo partly drawn) [Compound 8, ethyl (2R)-8-((2-chloro-4-fluorobenzyl)sulfonyl)-2-(hydroxymethyl)-1,4-dioxaspiro[4.5]dec-6-ene-7-carboxylate] | – | 100 | – | –
7 | CCOC(=O)C1=CC2(CCC1S(=O)(=O)Cc1ccc(F)c(Cl)c1)O[C@H](CO)[C@@H](CO)O2 (stereo partly drawn) [Compound 5, ethyl (2R,3R)-8-((3-chloro-4-fluorobenzyl)sulfonyl)-2,3-bis(hydroxymethyl)-1,4-dioxaspiro[4.5]dec-6-ene-7-carboxylate] | 100 | – | – | –

Further lines, with some results ahead:

Row | NO production inhibitory effect at 100 nM (% inhibition) (TLR4) | NO production inhibitory effect at 100 nM (% inhibition) (TLR4; 0.1 µM) | SMILES | Blood TNFα inhibition rate (% inhibition) (TNFα; Dose 20 mg/kg) | Blood TNFα inhibition rate (% inhibition) (TNFα; Dose 10 mg/kg)
8 | 98 | – | CCOC(=O)C1=CC2(CCC1S(=O)(=O)Cc1cccc(C)c1)O[C@@H](CO)[C@H](CO)O2 (stereo partly drawn) [Compound 25, ethyl (2S,3S)-2,3-bis(hydroxymethyl)-8-((3-methylbenzyl)sulfonyl)-1,4-dioxaspiro[4.5]dec-6-ene-7-carboxylate] | 93.8 | –
9 | 100 | – | CCOC(=O)C1=CC2(CCC1S(=O)(=O)Cc1cccc(Cl)c1)O[C@@H](CO)[C@H](CO)O2 (stereo partly drawn) [Compound 24, ethyl (2S,3S)-8-((3-chlorobenzyl)sulfonyl)-2,3-bis(hydroxymethyl)-1,4-dioxaspiro[4.5]dec-6-ene-7-carboxylate] | 91.5 | –
10 | 110 | – | CCOC(=O)C1=CC2(CCC1S(=O)(=O)Cc1ccc(F)cc1Cl)OCCO2 (centres unmarked) [Compound 22, ethyl 8-((2-chloro-4-fluorobenzyl)sulfonyl)-1,4-dioxaspiro[4.5]dec-6-ene-7-carboxylate] | – | –
